Results: the supplement of paper PMC13380429

Assays:
Settings in all cases: 72 h
Caco-2 [1] = assay: drug sensitivity score (DSS) for viability; higher = more toxic; extreme values may be limits of the assay
U2OS [2] = assay: as above
HepG2 [3] = assay: as above
Calu-3 [4] = assay: as above
Vero E6 [5] = assay: as above
Caco-2 [6] = assay: relative viability EC50 (midpoint between 100% and the lowest measured viability); higher = less toxic
U2OS [7] = assay: as above
HepG2 [8] = assay: as above
Calu-3 [9] = assay: as above
Vero E6 [10] = assay: as above
Caco-2 [11] = assay: cell viability relative to DMSO; higher = less toxic
U2OS [12] = assay: as above
HepG2 [13] = assay: as above
Calu-3 [14] = assay: as above
Vero E6 [15] = assay: as above

Row | SMILES | drug sensitivity score (Caco-2 [1]) | drug sensitivity score (U2OS [2]) | drug sensitivity score (HepG2 [3]) | drug sensitivity score (Calu-3 [4]) | drug sensitivity score (Vero E6 [5]) | relative viability EC50 (Caco-2 [6]) | relative viability EC50 (U2OS [7]) | relative viability EC50 (HepG2 [8]) | relative viability EC50 (Calu-3 [9]) | relative viability EC50 (Vero E6 [10]) | cell viability (Caco-2 [11]; 1 nM) | cell viability (Caco-2 [11]; 10 nM) | cell viability (Caco-2 [11]; 100 nM) | cell viability (Caco-2 [11]; 1000 nM) | cell viability (Caco-2 [11]; 10000 nM) | cell viability (U2OS [12]; 1 nM) | cell viability (U2OS [12]; 10 nM) | cell viability (U2OS [12]; 100 nM) | cell viability (U2OS [12]; 1000 nM) | cell viability (U2OS [12]; 10000 nM) | cell viability (HepG2 [13]; 1 nM) | cell viability (HepG2 [13]; 10 nM) | cell viability (HepG2 [13]; 100 nM) | cell viability (HepG2 [13]; 1000 nM) | cell viability (HepG2 [13]; 10000 nM) | cell viability (Calu-3 [14]; 1 nM) | cell viability (Calu-3 [14]; 10 nM) | cell viability (Calu-3 [14]; 100 nM) | cell viability (Calu-3 [14]; 1000 nM) | cell viability (Calu-3 [14]; 10000 nM) | cell viability (Vero E6 [15]; 1 nM) | cell viability (Vero E6 [15]; 10 nM) | cell viability (Vero E6 [15]; 100 nM) | cell viability (Vero E6 [15]; 1000 nM) | cell viability (Vero E6 [15]; 10000 nM)
1 | CC(C)(C)C(=O)OCOC(=O)[C@@H]1N2C(=O)[C@@H](/N=C/N3CCCCCC3)[C@H]2SC1(C)C [pivmecillinam] | 0 | 0 | 0 | 0 | 0 | > 10 µM | > 10 µM | > 10 µM | > 10 µM | > 10 µM | 88.8% | 92.9% | 93.3% | 90.7% | 97.2% | 102% | 99.8% | 103% | 98.9% | 104% | 94.7% | 92.7% | 96.1% | 95.5% | 91.9% | 90.9% | 93.1% | 97.9% | 94.9% | 112% | 106% | 102% | 96.6% | 104% | 92.8%
2 | NC(=O)CC[C@H](NC(=O)Cc1ccccc1)C(=O)O [phenylacetylglutamine] | 0 | 0 | 0 | 0 | 0 | > 10 µM | > 10 µM | > 10 µM | > 10 µM | > 10 µM | 91.4% | 101% | 82.2% | 96% | 92.9% | 97% | 101% | 97.8% | 92.2% | 97.5% | 93.9% | 94.4% | 96.2% | 90.9% | 98.5% | 90.6% | 102% | 94.9% | 95.8% | 98.3% | 104% | 94.6% | 103% | 100% | 105%
3 | CC(C)C[C@H](NC(=O)N1CCCCCC1)C(=O)N[C@H](Cc1cn(C)c2ccccc12)C(=O)N[C@H](Cc1ccccn1)C(=O)O | 0 | 0 | 0 | 0 | 0 | > 10 µM | > 10 µM | > 10 µM | > 10 µM | > 10 µM | 100% | 82.5% | 92.1% | 99.9% | 91.2% | 99.1% | 94.4% | 96.4% | 99% | 97.9% | 94.5% | 111% | 99% | 101% | 89.8% | 109% | 95.2% | 97.9% | 106% | 112% | 95% | 97% | 100% | 98.9% | 98.5%
4 | NC[C@H]1O[C@H](O[C@H]2[C@H](O)[C@@H](O[C@H]3O[C@H](CO)[C@@H](O)[C@H](N)[C@H]3O)[C@H](N)C[C@@H]2N)[C@H](N)[C@@H](O)[C@@H]1O [bekanamycin] | 0 | 0 | 0 | 0 | 0 | > 10 µM | > 10 µM | > 10 µM | > 10 µM | > 10 µM | 103% | 101% | 95.9% | 110% | 100% | 95.7% | 103% | 97.5% | 101% | 97.7% | 94.7% | 97.8% | 103% | 94.4% | 99.1% | 111% | 93% | 97.8% | 111% | 97.3% | 98.1% | 102% | 99.2% | 97.4% | 108%
5 | C[N+]1(C)CCC(OC(=O)C(c2ccccc2)c2ccccc2)CC1 [4-DAMP] | 0 | 0 | 0 | 0 | 0 | > 10 µM | > 10 µM | > 10 µM | > 10 µM | > 10 µM | 105% | 96.3% | 106% | 102% | 87.4% | 103% | 97.7% | 99.2% | 97.7% | 99.5% | 90.8% | 97% | 103% | 100% | 90.9% | 85.8% | 87.6% | 92.9% | 101% | 100% | 98.5% | 99.8% | 99% | 97.4% | 96%
6 | N[C@@H](CS(=O)O)C(=O)O [L-cysteinesulfinic-acid] | 0 | 0 | 0.2 | 0 | 0 | > 10 µM | > 10 µM | > 10 µM | > 10 µM | > 10 µM | 96.8% | 93.2% | 102% | 105% | 101% | 99.5% | 97.3% | 98.5% | 106% | 101% | 93.5% | 90.9% | 77.8% | 89.9% | 102% | 94% | 97.3% | 105% | 111% | 107% | 91% | 95.8% | 93.2% | 95.1% | 102%
7 | CCCN(CCC)C(=O)Cc1c(-c2ccc(Cl)cc2)nc2ccc(Cl)cn12 [alpidem] | 0 | 0 | 0 | 0 | 0 | > 10 µM | > 10 µM | > 10 µM | > 10 µM | > 10 µM | 91.5% | 103% | 102% | 104% | 100% | 92.6% | 97.4% | 95.9% | 104% | 112% | 92.5% | 94.6% | 96.6% | 102% | 95.1% | 95.7% | 96.4% | 96.2% | 98.9% | 107% | 102% | 99.6% | 104% | 97.4% | 112%
8 | CCCCCN(CCCOC)C(=O)[C@@H](CCC(=O)O)NC(=O)c1ccc(Cl)c(Cl)c1 [dexloxiglumide] | 0.1 | 0 | 0 | 0 | 0 | > 10 µM | > 10 µM | > 10 µM | > 10 µM | > 10 µM | 92.1% | 82.1% | 87.5% | 86.9% | 107% | 92.2% | 92.1% | 99.5% | 91.9% | 104% | 94.5% | 105% | 89.6% | 104% | 108% | 100% | 93.3% | 96.4% | 95.7% | 93% | 89.4% | 97.8% | 91.1% | 96.1% | 109%
9 | CCC[S+]([O-])c1ccc2[nH]c(NC(=O)OC)nc2c1 (stereo not given) [albendazole-oxide] | 0 | 0 | 0.2 | 0 | 0 | > 10 µM | > 10 µM | > 10 µM | > 10 µM | > 10 µM | 101% | 98.8% | 96.6% | 101% | 102% | 105% | 101% | 101% | 99.6% | 103% | 107% | 103% | 98% | 106% | 83.7% | 114% | 104% | 103% | 95.7% | 107% | 103% | 104% | 102% | 101% | 94%
10 | O=C1c2c(O)cccc2Cc2cccc(O)c21 [anthralin] | 0 | 0 | 0 | 0 | 0 | > 10 µM | > 10 µM | > 10 µM | > 10 µM | > 10 µM | 102% | 95.8% | 97.3% | 96.9% | 93.4% | 92.3% | 97.6% | 97% | 98.8% | 102% | 90.2% | 103% | 119% | 105% | 92.3% | 103% | 98.5% | 89.8% | 95.9% | 108% | 102% | 88.7% | 96% | 78.3% | 100%
11 | NCCc1c[nH]cn1 [histamine] | 0 | 0 | 0 | 0 | 0 | > 10 µM | > 10 µM | > 10 µM | > 10 µM | > 10 µM | 90.8% | 105% | 101% | 110% | 104% | 94.9% | 99.7% | 97.5% | 103% | 102% | 100% | 102% | 103% | 100% | 97.5% | 99.4% | 100% | 101% | 95.7% | 109% | 99.4% | 98.2% | 93.5% | 97.5% | 104%
12 | CO[C@]12C[C@@H](COC(=O)c3cncc(Br)c3)CN(C)[C@@H]1Cc1cn(C)c3cccc2c13 [nicergoline] | 0 | 0 | 0 | 0 | 0 | > 10 µM | > 10 µM | > 10 µM | > 10 µM | > 10 µM | 97.7% | 96% | 102% | 95% | 95.4% | 97.1% | 94.8% | 100% | 95.4% | 96.8% | 111% | 101% | 102% | 118% | 98.2% | 108% | 112% | 111% | 99.7% | 96.6% | 93.7% | 101% | 92.6% | 97.4% | 108%
13 | CCCCCCCCCCC[C@@H](C[C@@H]1OC(=O)[C@H]1CCCCCC)OC(=O)[C@H](CC(C)C)NC=O [orlistat] | 0 | 0 | 0 | 0 | 0 | > 10 µM | > 10 µM | > 10 µM | > 10 µM | > 10 µM | 111% | 98.5% | 99.9% | 99% | 94.9% | 96% | 97.2% | 92.6% | 105% | 105% | 104% | 106% | 108% | 96.7% | 100% | 103% | 97.4% | 110% | 102% | 103% | 96.2% | 98.2% | 89.9% | 82.8% | 102%
14 | C[N+](C)(C)CC(=O)O [betaine] | 0 | 0 | 0 | 0 | 0 | > 10 µM | > 10 µM | > 10 µM | > 10 µM | > 10 µM | 99.7% | 90% | 93.5% | 96.9% | 87.1% | 99.5% | 102% | 98.8% | 104% | 96.7% | 96.3% | 89.1% | 108% | 98.6% | 106% | 101% | 95.8% | 106% | 91.4% | 98.7% | 115% | 100% | 104% | 107% | 98.9%
